Data as given in US4119635A, “Substituted 1,2,4-triazole derivatives” (Gruppo Lepetit S.p.A., priority 1971, dated 1978).
Where two headings read alike, the source gives them in different places.

Tests used:
mice [1] = experiment: Spontaneous activity (S. Irwin scheme); assay type: in vivo; details: Mus musculus, ip, read-out: Decrease of spontaneous activity ED50
Source text: (§1) As stated before, the compounds of the invention have CNS depressant utility. More exactly, the compounds of Examples 1,2,3,5-10, 14, 31(42), 32(56), 34, 35 and 45(55) are useful as sedatives and hypnotics. These pharmacological properties were ascertained by following the operative scheme and the manipulation procedure described by S. Irwin in Psychopharmacologia (Berl.), 13, 222, 1968. Especially, there were studied the biological effects of the compounds on two of the parameters which are closely related to the above properties, namely the "spontaneous activity" and the "righting reflex". The effects of the compounds on these two parameters were expressed as ED50 values ie., the amount of compound tested which reduces the spontaneous activity and righting reflex scores of test animals to 50% of those of the controls. The scores are the same as those reported by S. Irwin in the cited paper. For each compound it was also determined the minimal dosis which produces complete hypnosis of the test animals (MHD).
(§2) The obtained results are summarized in the following table, which also reports the toxicities of the tested substances, expressed as LD50 values. For comparison purposes, also the activity of two known compounds was determined. The known compounds are 1-methyl-3,5-diphenyl-1,2,4-triazole (Compound A, Atkinson et al. Journ. Chem. Soc., 1954, 141, 1954) and 1-methyl-3-phenyl-5-(p-chlorophenyl)-1,2,4-triazole (Compound B, Huisgen et al., Journ. Org. Chem., 24, 892, 1959).

mice [2] = experiment: Righting reflex (S. Irwin scheme); assay type: in vivo; details: Mus musculus, ip, read-out: Impairment of righting reflex ED50
Source text: as §1, §2

Toxicity (LD50) = details: mouse, in vivo, ip
Description: as §2

mice [3] = experiment: Minimal dosis which produces complete hypnosis (MHD); assay type: in vivo; details: Mus musculus, ip, read-out: Minimal hypnotic dosis
Source text: as §1

rats = experiment: Secondary response avoidance test (G. Maffii), antianxiety effect; assay type: in vivo; details: 20 mg/kg i.p.
Description: The compounds of Examples 34 and 45(55) are also useful as anxiety relieving means. This property was investigated on the basis of the secondary response avoidance test, which was performed as described by G. Maffii, Journ. Pharm. Pharmacol., 11, 192, 1959.

[4] = mice, dose reducing score to 50% of controls

SMILES	ED50 (mice [1])	ED50 (mice [2])	LD50 (Toxicity (LD50); mice, read-out: Toxicity LD50)	minimal effective dose (mice [3]; mice, complete hypnosis)	antianxiety effect (rats)	minimal effective dose (mice [3])	ED50 (mice [1]; [4])	ED50 (mice [2]; [4])	LD50 (Toxicity (LD50))
Cc1ccccc1-c1nc(-c2ccccc2)nn1C [31(42), 1-Methyl-5-(o-tolyl)-3-phenyl-1,2,4-triazole]	60 mg/kg	50 mg/kg	> 1000 mg/kg	300 mg/kg	–	–	–	–	–
Cc1cccc(-c2nc(-c3ccccc3C)n(C)n2)c1 [32(56), 1-Methyl-3-(m-tolyl)-5-(o-tolyl)-1,2,4-triazole]	30 mg/kg	20 mg/kg	> 1000 mg/kg	200 mg/kg	–	–	–	–	–
Cc1ccccc1-c1nc(-c2cccc(Cl)c2)nn1C [45(55), 1-Methyl-3-(3-chlorophenyl)-5-(o-tolyl)-1,2,4-triazole]	30 mg/kg	50 mg/kg	700 mg/kg	300 mg/kg	remarkable antianxiety effect	–	–	–	–
Cn1nc(-c2ccccc2)nc1-c1ccccc1 [Compound A, 1-methyl-3,5-diphenyl-1,2,4-triazole, reference compound]	> 100 mg/kg	300 mg/kg	1000 mg/kg	–	–	> 1000 mg/kg	–	–	–
Cn1nc(-c2ccccc2)nc1-c1ccc(Cl)cc1 [Compound B, 1-methyl-3-phenyl-5-(p-chlorophenyl)-1,2,4-triazole, reference compound]	–	–	> 1000 mg/kg	> 600 mg/kg	–	–	> 300 mg/kg	> 300 mg/kg	–
Cn1nc(-c2ccccc2)nc1-c1ccccc1CO [Example 1, 5-(2-Hydroxymethylphenyl)-1-methyl-3-phenyl-1,2,4-triazole]	–	–	1000 mg/kg	300 mg/kg	–	–	60 mg/kg	100 mg/kg	–
Cn1nc(-c2ccccc2Cl)nc1-c1ccccc1CO [Example 2]	60 mg/kg	60 mg/kg	500 mg/kg	300 mg/kg	–	–	–	–	–
Cn1nc(-c2cccc(Cl)c2)nc1-c1ccccc1CO [Example 3]	30 mg/kg	10 mg/kg	500 mg/kg	200 mg/kg	–	–	–	–	–
Cn1nc(-c2cccc(F)c2)nc1-c1ccccc1CO [Example 5]	30 mg/kg	50 mg/kg	400 mg/kg	150 mg/kg	–	–	–	–	–
Cc1ccccc1-c1nc(-c2ccccc2CO)n(C)n1 [Example 6, 1-methyl-3-(o-tolyl)-5-(2-hydroxymethylphenyl)-1,2,4-triazole]	50 mg/kg	25 mg/kg	1000 mg/kg	600 mg/kg	–	–	–	–	–
Cc1cccc(-c2nc(-c3ccccc3CO)n(C)n2)c1 [Example 7]	–	–	–	80 mg/kg	–	–	30 mg/kg	20 mg/kg	500 mg/kg
Cc1ccc(-c2nc(-c3ccccc3CO)n(C)n2)cc1 [Example 8]	–	–	–	600 mg/kg	–	–	80 mg/kg	100 mg/kg	> 1000 mg/kg
COc1cccc(-c2nc(-c3ccccc3CO)n(C)n2)c1 [Example 9]	–	–	–	300 mg/kg	–	–	60 mg/kg	60 mg/kg	1000 mg/kg
Cn1nc(-c2cccc([N+](=O)[O-])c2)nc1-c1ccccc1CO [Example 10, 1-methyl-3-(3-nitrophenyl)-5-(2-hydroxymethylphenyl)-1,2,4-triazole]	–	–	1000 mg/kg	300 mg/kg	–	–	60 mg/kg	40 mg/kg	–
Cn1nc(-c2ccc3c(c2)OCO3)nc1-c1ccccc1CO [Example 14]	–	–	–	300 mg/kg	–	–	80 mg/kg	80 mg/kg	> 1000 mg/kg
Cc1ccccc1-c1nc(-c2cccc(N)c2)nn1C [Example 34, 1-Methyl-3-(3-aminophenyl)-5-(o-tolyl)-1,2,4-triazole]	30 mg/kg	20 mg/kg	200 mg/kg	60 mg/kg	remarkable antianxiety effect	–	–	–	–
COc1cccc(-c2nc(-c3ccccc3C)n(C)n2)c1 [Example 35, 1-Methyl-3-(3-methoxyphenyl)-5-(o-tolyl)-1,2,4-triazole]	60 mg/kg	50 mg/kg	1000 mg/kg	300 mg/kg	–	–	–	–	–
